From US20070128217A1 (priority 2003, published 2007)

Legend:
[1] = system: antibodies in sera from SARS patients (sera 1a, 1b, 2, 6, 37, 62, London, SARS-yellow, SARS-green); type: binding, human; design: Binding of serum 6 to linear peptides of protein X1 of SARS-CoV Urbani / Binding of serum 37 to linear peptides of protein X1 of SARS-CoV Urbani / Binding of serum 6 to looped/cyclic peptide (PEPSCAN-ELISA) / Binding of serum 37 to looped/cyclic peptide (PEPSCAN-ELISA) / Binding of serum 37 to looped/cyclic peptides of protein X1 of SARS-CoV Urbani / Binding of serum 6 to linear peptides of protein X2 / Binding of serum 37 to linear peptides of protein X2 / Binding of serum 37 to looped/cyclic peptides of protein X2 of SARS-CoV Urbani / Binding of serum 6 to linear peptides of protein M of SARS-CoV Urbani / Binding of serum 37 to linear peptides of protein M of SARS-CoV Urbani / Binding of serum 6 to looped/cyclic peptides of protein M of SARS-CoV Urbani / Binding of serum 37 to looped/cyclic peptides of protein M of SARS-CoV Urbani / Binding of serum 6 to linear peptides of protein X3 of SARS-CoV Urbani / Binding of serum 37 to linear peptides of protein X3 of SARS-CoV Urbani / Binding of serum 37 to looped/cyclic peptides of protein X3 of SARS-CoV Urbani / Binding of serum 6 to linear peptides of protein X4 of SARS-CoV Urbani / Binding of serum 37 to linear peptides of protein X4 of SARS-CoV Urbani / Binding of serum 37 to looped/cyclic peptides of protein X4 of SARS-CoV Urbani / Binding of serum 6 to linear peptides of protein X5 of SARS-CoV Urbani / Binding of serum 37 to linear peptides of protein X5 of SARS-CoV Urbani / Binding of serum 37 to looped/cyclic peptides of protein X5 of SARS-CoV Urbani / Binding of serum 6 to linear peptides of protein N of SARS-CoV Urbani / Binding of serum 37 to linear peptides of protein N of SARS-CoV Urbani / Binding of serum 6 to linear peptide (PEPSCAN-ELISA) / Binding of serum 1a to looped/cyclic peptides of protein N of SARS-CoV Urbani / Binding of serum 1b to looped/cyclic peptides of protein N of SARS-CoV Urbani / Binding of serum 2 to looped/cyclic peptides of protein N of SARS-CoV Urbani / Binding of serum 6 to looped/cyclic peptides of protein N of SARS-CoV Urbani / Binding of serum 37 to looped/cyclic peptides of protein N of SARS-CoV Urbani / Binding of serum 62 to looped/cyclic peptides of protein N of SARS-CoV Urbani / Binding of serum London to looped/cyclic peptides of protein N of SARS-CoV Urbani / Binding of serum SARS-green to looped/cyclic peptides of protein N of SARS-CoV Urbani: unit not given here
[2] = system: control sera (pooled serum of ten healthy LUMC hospital workers; commercial negative donor pooled serum from the Dutch bloodbank); type: binding, human; design: Binding of Control serum LUMC to linear peptides / Binding of Control serum Blood-bank to linear peptides / Binding of Control serum LUMC to looped peptides / Binding of Control Serum Blood-Bank to Looped peptides / Binding of Control serum LUMC to linear peptides of the protein M of SARS-CoV Urbani / Binding of Control serum Blood-bank to linear peptides of the protein M of SARS-CoV Urbani / Binding of Control serum LUMC to looped peptides of the protein M of SARS-CoV Urbani / Binding of Control Serum Blood-Bank to Looped peptides of the protein M of SARS-CoV Urbani: unit not given here
[3] = system: rabbit serum obtained by immunizing a rabbit with the SARS-CoV strain Frankfurt 1; type: binding; design: Binding of a rabbit serum to linear peptides / Binding of a rabbit serum to looped peptides / Rabbit serum linear peptides / Rabbit serum looped peptides / Binding of a rabbit serum to linear peptides of protein N of SARS-CoV Urbani (Rabbit serum linear peptides) / Binding of a rabbit serum to looped/cyclic peptides of protein N of SARS-CoV Urbani (Rabbit serum looped peptides): unit not given here

MDLFMRFFTLGSITA
0.6: Binding of serum SARS-green to linear peptides of protein X1 of SARS-CoV Urbani [1] | Binding of Control Serum Blood-Bank to Looped peptides [2] | Binding of Control serum LUMC to linear peptides [2] | Binding of Control serum LUMC to looped peptides [2]
1.0: Binding of serum 6 to looped/cyclic peptide (PEPSCAN-ELISA) [1]
0.8: Binding of serum 1a to linear peptides of protein X1 of SARS-CoV Urbani [1] | Binding of serum London to looped/cyclic peptide (PEPSCAN-ELISA) [1]
0.3: Binding of serum 1b to looped/cyclic peptide (PEPSCAN-ELISA) [1] | Binding of serum London to linear peptides of protein X1 of SARS-CoV Urbani [1]
0.5: Binding of serum 1a to looped/cyclic peptide (PEPSCAN-ELISA) [1] | Binding of serum 6 to linear peptides of protein X1 of SARS-CoV Urbani [1] | Binding of serum 62 to looped/cyclic peptide (PEPSCAN-ELISA) [1] | Binding of serum SARS-yellow to linear peptides of protein X1 of SARS-CoV Urbani [1] | Binding of serum SARS-yellow to looped/cyclic peptide (PEPSCAN-ELISA) [1] | Binding of a rabbit serum to linear peptides [3] | Binding of a rabbit serum to looped peptides [3]
0.4: Binding of serum 2 to looped/cyclic peptide (PEPSCAN-ELISA) [1] | Binding of serum 37 to looped/cyclic peptide (PEPSCAN-ELISA) [1] | Binding of serum SARS-green to looped/cyclic peptide (PEPSCAN-ELISA) [1]
0.7: Binding of serum 1b to linear peptides of protein X1 of SARS-CoV Urbani [1] | Binding of serum 2 to linear peptides of protein X1 of SARS-CoV Urbani [1] | Binding of serum 37 to linear peptides of protein X1 of SARS-CoV Urbani [1] | Binding of serum 62 to linear peptides of protein X1 of SARS-CoV Urbani [1] | Binding of Control serum Blood-bank to linear peptides [2]

MESELVIGAVIIRGH
0.6: Binding of serum 2 to looped/cyclic peptides of protein M of SARS-CoV Urbani [1] | Binding of serum 6 to linear peptides of protein M of SARS-CoV Urbani [1] | Binding of serum 62 to looped/cyclic peptides of protein M of SARS-CoV Urbani [1] | Binding of serum SARS-yellow to looped/cyclic peptides of protein M of SARS-CoV Urbani [1] | Binding of Control serum LUMC to looped peptides of the protein M of SARS-CoV Urbani [2]
0.2: Binding of serum London to looped/cyclic peptides of protein M of SARS-CoV Urbani [1] | Binding of serum SARS-green to looped/cyclic peptides of protein M of SARS-CoV Urbani [1] | Binding of serum SARS-yellow to linear peptides of protein M of SARS-CoV Urbani [1] | Rabbit serum linear peptides [3] | Rabbit serum looped peptides [3]
0.7: Binding of serum 1a to looped/cyclic peptides of protein M of SARS-CoV Urbani [1] | Binding of serum 1b to linear peptides of protein M of SARS-CoV Urbani [1] | Binding of serum 6 to looped/cyclic peptides of protein M of SARS-CoV Urbani [1] | Binding of serum 37 to looped/cyclic peptides of protein M of SARS-CoV Urbani [1] | Binding of serum SARS-green to linear peptides of protein M of SARS-CoV Urbani [1] | Binding of Control Serum Blood-Bank to Looped peptides of the protein M of SARS-CoV Urbani [2]
0.5: Binding of serum 1b to looped/cyclic peptides of protein M of SARS-CoV Urbani [1] | Binding of serum 37 to linear peptides of protein M of SARS-CoV Urbani [1] | Binding of serum 62 to linear peptides of protein M of SARS-CoV Urbani [1]
0.4: Binding of serum London to linear peptides of protein M of SARS-CoV Urbani [1]
0.8: Binding of serum 1a to linear peptides of protein M of SARS-CoV Urbani [1] | Binding of serum 2 to linear peptides of protein M of SARS-CoV Urbani [1] | Binding of Control serum Blood-bank to linear peptides of the protein M of SARS-CoV Urbani [2] | Binding of Control serum LUMC to linear peptides of the protein M of SARS-CoV Urbani [2]

MFHLVDFQVTIAEIL
0.3: Binding of serum London to looped/cyclic peptides of protein X3 of SARS-CoV Urbani [1] | Binding of serum SARS-green to linear peptides of protein X3 of SARS-CoV Urbani [1] | Rabbit serum linear peptides [3]
0.6: Binding of serum 1b to looped/cyclic peptides of protein X3 of SARS-CoV Urbani [1] | Binding of serum 6 to looped/cyclic peptides of protein X3 of SARS-CoV Urbani [1] | Binding of serum SARS-green to looped/cyclic peptides of protein X3 of SARS-CoV Urbani [1] | Binding of serum SARS-yellow to linear peptides of protein X3 of SARS-CoV Urbani [1]
0.9: Binding of Control serum Blood-bank to linear peptides of the protein X3 of SARS-CoV Urbani [2] | Binding of Control serum LUMC to linear peptides of the protein X3 of SARS-CoV Urbani [2]
0.7: Binding of serum 1b to linear peptides of protein X3 of SARS-CoV Urbani [1] | Binding of serum 2 to linear peptides of protein X3 of SARS-CoV Urbani [1] | Binding of serum 37 to linear peptides of protein X3 of SARS-CoV Urbani [1] | Binding of serum London to linear peptides of protein X3 of SARS-CoV Urbani [1]
0.8: Binding of serum 1a to linear peptides of protein X3 of SARS-CoV Urbani [1] | Binding of serum 1a to looped/cyclic peptides of protein X3 of SARS-CoV Urbani [1] | Binding of serum 2 to looped/cyclic peptides of protein X3 of SARS-CoV Urbani [1] | Binding of serum 62 to linear peptides of protein X3 of SARS-CoV Urbani [1] | Binding of serum 62 to looped/cyclic peptides of protein X3 of SARS-CoV Urbani [1] | Binding of serum SARS-yellow to looped/cyclic peptides of protein X3 of SARS-CoV Urbani [1] | Binding of Control Serum Blood-Bank to Looped peptides of the protein X3 of SARS-CoV Urbani [2]
0.5: Binding of serum 6 to linear peptides of protein X3 of SARS-CoV Urbani [1]
1.0: Binding of serum 37 to looped/cyclic peptides of protein X3 of SARS-CoV Urbani [1] | Binding of Control serum LUMC to looped peptides of the protein X3 of SARS-CoV Urbani [2]
0.4: Rabbit serum looped peptides [3]

MKIILFLTLIVFTSC
0.4: Binding of serum 2 to linear peptides of protein X4 of SARS-CoV Urbani [1] | Binding of serum 6 to linear peptides of protein X4 of SARS-CoV Urbani [1] | Binding of serum SARS-green to linear peptides of protein X4 of SARS-CoV Urbani [1] | Rabbit serum looped peptides [3]
0.5: Binding of serum 1b to linear peptides of protein X4 of SARS-CoV Urbani [1] | Binding of serum 2 to looped/cyclic peptides of protein X4 of SARS-CoV Urbani [1] | Binding of serum 6 to looped/cyclic peptides of protein X4 of SARS-CoV Urbani [1] | Binding of serum 62 to looped/cyclic peptides of protein X4 of SARS-CoV Urbani [1] | Binding of serum SARS-yellow to linear peptides of protein X4 of SARS-CoV Urbani [1] | Binding of Control serum LUMC to linear peptides [2]
0.6: Binding of serum 1a to linear peptides of protein X4 of SARS-CoV Urbani [1] | Binding of serum 1a to looped/cyclic peptides of protein X4 of SARS-CoV Urbani [1] | Binding of serum 37 to looped/cyclic peptides of protein X4 of SARS-CoV Urbani [1] | Binding of serum SARS-yellow to looped/cyclic peptides of protein X4 of SARS-CoV Urbani [1] | Binding of Control Serum Blood-Bank to Looped peptides [2] | Binding of Control serum Blood-bank to linear peptides [2]
0.2: Binding of serum London to looped/cyclic peptides of protein X4 of SARS-CoV Urbani [1]
0.3: Binding of serum SARS-green to looped/cyclic peptides of protein X4 of SARS-CoV Urbani [1]
0.0: Binding of serum 1b to looped/cyclic peptides of protein X4 of SARS-CoV Urbani [1]
0.7: Binding of serum 37 to linear peptides of protein X4 of SARS-CoV Urbani [1] | Binding of serum 62 to linear peptides of protein X4 of SARS-CoV Urbani [1] | Binding of serum London to linear peptides of protein X4 of SARS-CoV Urbani [1] | Binding of Control serum LUMC to looped peptides [2] | Rabbit serum linear peptides [3]

MLHSSSLTSLLKTHR
0.5: Binding of serum 1a to looped/cyclic peptides of protein X2 of SARS-CoV Urbani [1] | Binding of serum 1b to looped/cyclic peptides of protein X2 of SARS-CoV Urbani [1] | Binding of serum 2 to looped/cyclic peptides of protein X2 of SARS-CoV Urbani [1] | Binding of serum 37 to linear peptides of protein X2 [1] | Binding of serum 62 to linear peptides of protein X2 [1] | Binding of serum 62 to looped/cyclic peptides of protein X2 of SARS-CoV Urbani [1] | Binding of serum SARS-green to linear peptides of protein X2 [1] | Binding of serum SARS-yellow to linear peptides of protein X2 [1] | Binding of serum SARS-yellow to looped/cyclic peptides of protein X2 of SARS-CoV Urbani [1] | Binding of Control serum Blood-bank to linear peptides [2] | Binding of Control serum LUMC to looped peptides [2] | Binding of a rabbit serum to looped peptides [3]
0.6: Binding of serum 1a to linear peptides of protein X2 [1] | Binding of serum 6 to linear peptides of protein X2 [1] | Binding of serum London to linear peptides of protein X2 [1] | Binding of Control Serum Blood-Bank to Looped peptides [2]
0.4: Binding of serum 1b to linear peptides of protein X2 [1] | Binding of serum 2 to linear peptides of protein X2 [1] | Binding of serum SARS-green to looped/cyclic peptides of protein X2 of SARS-CoV Urbani [1] | Binding of Control serum LUMC to linear peptides [2]
0.3: Binding of serum 37 to looped/cyclic peptides of protein X2 of SARS-CoV Urbani [1]
0.2: Binding of serum 6 to looped/cyclic peptides of protein X2 of SARS-CoV Urbani [1] | Binding of serum London to looped/cyclic peptides of protein X2 of SARS-CoV Urbani [1] | Binding of a rabbit serum to linear peptides [3]
